Legend:
[1] = target: T1, human androgen receptor (AR) (Homo sapiens, UniProt P10275); experiment: Nuclear hormone receptor functional modulation assay (probasin ARE-luciferase reporter, HEK293), AR; assay type: cell-based; details: agonist mode, mean of n=4 or 5
T1 construct: expressed in transfected cells; host or cells: HEK293, transient transfection, CMV promoter plasmid
T1 sequence (P10275 1-920): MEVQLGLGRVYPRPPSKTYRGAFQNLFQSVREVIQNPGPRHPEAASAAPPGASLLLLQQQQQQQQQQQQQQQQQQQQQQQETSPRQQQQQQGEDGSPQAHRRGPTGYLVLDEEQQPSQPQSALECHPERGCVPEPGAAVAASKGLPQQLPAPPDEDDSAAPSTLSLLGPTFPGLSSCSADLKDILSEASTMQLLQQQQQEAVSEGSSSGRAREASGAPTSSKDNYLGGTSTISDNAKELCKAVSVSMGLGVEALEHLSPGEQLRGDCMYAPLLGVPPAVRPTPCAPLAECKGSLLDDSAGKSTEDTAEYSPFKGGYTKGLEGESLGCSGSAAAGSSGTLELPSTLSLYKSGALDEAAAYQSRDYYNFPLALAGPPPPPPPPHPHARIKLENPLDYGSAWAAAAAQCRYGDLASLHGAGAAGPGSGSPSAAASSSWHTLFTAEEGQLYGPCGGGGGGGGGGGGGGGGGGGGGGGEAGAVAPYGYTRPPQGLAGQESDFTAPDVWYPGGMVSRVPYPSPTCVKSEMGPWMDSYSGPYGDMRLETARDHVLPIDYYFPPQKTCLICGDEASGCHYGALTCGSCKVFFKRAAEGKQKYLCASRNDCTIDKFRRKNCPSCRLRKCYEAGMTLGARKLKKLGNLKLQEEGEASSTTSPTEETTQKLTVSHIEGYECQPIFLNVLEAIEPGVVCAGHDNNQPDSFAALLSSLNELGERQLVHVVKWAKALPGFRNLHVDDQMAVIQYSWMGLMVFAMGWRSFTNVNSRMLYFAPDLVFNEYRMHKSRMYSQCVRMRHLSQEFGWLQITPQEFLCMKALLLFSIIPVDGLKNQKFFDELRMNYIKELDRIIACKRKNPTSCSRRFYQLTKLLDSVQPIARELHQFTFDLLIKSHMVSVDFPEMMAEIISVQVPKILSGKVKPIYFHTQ
Text: The solvents, reagents, and ligands employed in the functional assay are readily available from commercial sources, or can be prepared by one of ordinary skill in the art.
Human embryonic kidney HEK293 cells are transfected with steroid hormone receptor and reporter gene plasmids using Fugene™ transfection reagent. Briefly, the reporter plasmid containing two copies of probasin ARE and TK(thymidine kinase) promoter upstream of the luciferase reporter cDNA, is transfected into HEK293 cells with a plasmid constitutively expressing human androgen receptor (AR) using viral CMV(cytomegalovirus) promoter. The reporter plasmid containing two copies of GRE and TK promoter upstream of the luciferase reporter cDNA is transfected with a plasmid constitutively expressing either human glucocorticoid receptor (GR), human mineralocorticoid receptor (MR), or human progesterone receptor (PR) using viral CMV promoter. […] After 24-hours incubation with test compounds, cells are lysed and luciferase activity is determined using standard techniques.
Data are fitted to a four parameter-fit logistic curve fit to determine EC50 values. […] IC50 values may be determined similarly using antagonist mode assay data. Percent inhibitions may also be determined relative to the response in the presence of agonist alone, as described above.

[2] = target: T2, human AR (androgen receptor) (Homo sapiens, UniProt P10275); experiment: Nuclear hormone receptor competition binding assay, AR; details: HEK293 lysate overexpressing human AR, [3H]-methyltrienolone; mean of n=7
T2 construct: expressed in transfected cells; host or cells: HEK293 (293-AR lysate)
T2 sequence (P10275 1-920): T1 sequence (P10275 1-920)
Procedure: Cell lysates from human embryonic kidney HEK293 cells overexpressing human GR (glucocorticoid receptor), AR (androgen receptor), MR (mineralocorticoid receptor), or PR (progesterone receptor) are used for receptor-ligand competition binding assays to determine Ki values.
Briefly, steroid receptor competition binding assays are run in a buffer containing 20 mM Hepes buffer (pH=7.6), 0.2 mM EDTA, 75 mM NaCl, 1.5 mM MgCl2, 20% glycerol, 20 mM sodium molybdate, 0.2 mM DTT (dithiothreitol), 20 μg/ml aprotinin and 20 μg/ml leupeptin. Typically, steroid receptor binding assays include radio-labeled ligands, such as 0.3 nM [^3H]-dexamethasone for GR binding, 0.36 nM [^3H]-methyltrienolone for AR binding, 0.25 nM [^3H]-aldosterone for MR binding, and 0.29 nM [^3H]-methyltrienolone for PR binding, and either 20 μg 293-GR lysate, 22 μg 293-AR lysate, 20 μg 293-MR lysate or 40 μg 293-PR lysate per well. Assays are typically run in 96-well format. Competing test compounds are added at various concentrations ranging from about 0.01 nM to 10 μM. Non-specific binding is determined in the presence of 500 nM dexamethasone for GR binding, 500 nM aldosterone for MR binding, or 500 nM methyltrienolone for AR and PR binding. […] After an incubation of 2 hours, plates are read in a Wallac Microbeta counter. […]

efficacy in activating transcription, AR ([1]; relative to 100 nM methyltrienolone): about 4.4%
EC50 ([1]; read-out: EC50 in activating transcription, AR): > 10 µM
Ki [2]: ~6.7 nM
SMILES: CC/C(=C1\c2ccc(F)cc2OCc2ncccc21)c1cccc(NS(C)(=O)=O)c1 [Compound (I), (E)-N-{3-[1-(8-Fluoro-11H-10-oxa-1-aza-dibenzo[a,d]cyclohepten-5-ylidene)-propyl]-phenyl}-methanesulfonamide]

Source: patent US8101761B2, “(E)-N-{3-[1-(8-fluoro-11H-10-OXA-1-AZA-dibenzo [A,D] cyclohepten-5ylidene)-propyl]-phenyl}-methanesulfonamide as glucocorticoid receptor modulator for the treatment of rheumatoid arthritis” (Eli Lilly and Company, priority 2008, dated 2012)
